Activity calls are given as the source filed them.
Legend:
[1] = target: T1, G-protein coupled receptor 55 (Homo sapiens, UniProt Q9Y2T6); assay: GPR55 antagonists blocking LPI-driven arrestin recruitment, primary screen, imaging, U2OS, beta-arrestin-GFP, LPI agonist (AID 2013); type: functional;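 note: antagonist potency measured as reduced agonist-driven arrestin aggregation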
Cannabinoid receptor 2 [2] = target: T2, Cannabinoid receptor 2 (Homo sapiens, UniProt P34972); assay: SAR analysis of antagonists of the Cannabinoid Receptor 2 using an Image-Based Assay. [Related pubchem assays (depositor defined):AID2013, AID2026]; type: functional
T2 sequence (P34972 whole entry): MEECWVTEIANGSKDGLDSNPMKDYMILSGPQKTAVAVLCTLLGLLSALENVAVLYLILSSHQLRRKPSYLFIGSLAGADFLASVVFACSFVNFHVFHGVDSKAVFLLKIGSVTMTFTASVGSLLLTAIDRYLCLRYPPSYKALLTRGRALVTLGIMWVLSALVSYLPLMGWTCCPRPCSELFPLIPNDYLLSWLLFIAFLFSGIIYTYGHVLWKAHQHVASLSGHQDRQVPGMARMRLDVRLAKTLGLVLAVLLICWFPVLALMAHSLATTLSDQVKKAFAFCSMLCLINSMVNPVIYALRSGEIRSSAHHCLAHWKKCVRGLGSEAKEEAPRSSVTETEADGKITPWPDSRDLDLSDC

[3] = target: T3, G-protein coupled receptor 35 (Homo sapiens, UniProt Q9HC97); assay: SAR analysis of Antagonists of the GPR35 Receptor using an Image-Based Assay - Set 3. [Related pubchem assays (depositor defined):AID2013, AID2026]; type: functional
T3 sequence (Q9HC97 whole entry): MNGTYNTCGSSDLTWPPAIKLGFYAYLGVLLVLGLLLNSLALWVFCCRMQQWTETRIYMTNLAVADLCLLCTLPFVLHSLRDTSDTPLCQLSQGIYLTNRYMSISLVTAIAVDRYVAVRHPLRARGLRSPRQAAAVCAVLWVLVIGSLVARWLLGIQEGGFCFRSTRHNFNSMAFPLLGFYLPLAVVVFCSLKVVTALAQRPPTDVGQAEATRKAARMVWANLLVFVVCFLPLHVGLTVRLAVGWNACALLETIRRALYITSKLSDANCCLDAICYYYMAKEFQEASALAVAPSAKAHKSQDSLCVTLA

Cannabinoid receptor 1 [4] = target: T4, Cannabinoid receptor 1 (Homo sapiens, UniProt P21554); assay: SAR analysis of antagonists of the Cannabinoid Receptor 1 using an Image-Based Assay - Set 2. [Related pubchem assays (depositor defined):AID2013, AID2026]; type: functional
T4 sequence (P21554 whole entry): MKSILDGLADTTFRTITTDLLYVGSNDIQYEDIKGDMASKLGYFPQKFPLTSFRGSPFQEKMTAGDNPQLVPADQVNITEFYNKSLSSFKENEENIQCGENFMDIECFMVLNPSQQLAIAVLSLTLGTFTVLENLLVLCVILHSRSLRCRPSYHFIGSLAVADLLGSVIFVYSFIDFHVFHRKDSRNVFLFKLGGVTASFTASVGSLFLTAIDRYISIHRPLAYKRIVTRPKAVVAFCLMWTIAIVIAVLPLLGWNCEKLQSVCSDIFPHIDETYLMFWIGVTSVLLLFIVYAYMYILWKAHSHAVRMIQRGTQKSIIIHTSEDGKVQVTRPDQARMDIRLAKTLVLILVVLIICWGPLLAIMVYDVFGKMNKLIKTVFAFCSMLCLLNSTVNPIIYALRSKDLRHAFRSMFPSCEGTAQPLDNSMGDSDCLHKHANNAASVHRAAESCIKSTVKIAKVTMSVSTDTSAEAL

[5] = target: T3, G-protein coupled receptor 35; assay: SAR analysis of Agonists of the GPR35 Receptor using an Image-Based Assay - Set 2. [Related pubchem assays (depositor defined):AID2013, AID2026]; type: functional
[6] = target: T1, G-protein coupled receptor 55; assay: GPR55 antagonist potency of analogs, SAR follow-up, imaging, U2OS, beta-arrestin-GFP, LPI agonist, set 2 (AID 2820); type: functional
Cannabinoid receptor 2 [7] = target: T2, Cannabinoid receptor 2; assay: SAR analysis of agonists of the Cannabinoid Receptor 2 using an Image-Based Assay. [Related pubchem assays (depositor defined):AID2013, AID2026]; type: functional
Cannabinoid receptor 1 [8] = target: T4, Cannabinoid receptor 1; assay: SAR analysis of agonists of the Cannabinoid Receptor 1 using an Image-Based Assay - Set 2. [Related pubchem assays (depositor defined):AID2013, AID2026]; type: functional
[9] = target: T5, Histone-lysine N-methyltransferase NSD2 (Homo sapiens, UniProt O96028); type: biochemical
T5 sequence (O96028 whole entry): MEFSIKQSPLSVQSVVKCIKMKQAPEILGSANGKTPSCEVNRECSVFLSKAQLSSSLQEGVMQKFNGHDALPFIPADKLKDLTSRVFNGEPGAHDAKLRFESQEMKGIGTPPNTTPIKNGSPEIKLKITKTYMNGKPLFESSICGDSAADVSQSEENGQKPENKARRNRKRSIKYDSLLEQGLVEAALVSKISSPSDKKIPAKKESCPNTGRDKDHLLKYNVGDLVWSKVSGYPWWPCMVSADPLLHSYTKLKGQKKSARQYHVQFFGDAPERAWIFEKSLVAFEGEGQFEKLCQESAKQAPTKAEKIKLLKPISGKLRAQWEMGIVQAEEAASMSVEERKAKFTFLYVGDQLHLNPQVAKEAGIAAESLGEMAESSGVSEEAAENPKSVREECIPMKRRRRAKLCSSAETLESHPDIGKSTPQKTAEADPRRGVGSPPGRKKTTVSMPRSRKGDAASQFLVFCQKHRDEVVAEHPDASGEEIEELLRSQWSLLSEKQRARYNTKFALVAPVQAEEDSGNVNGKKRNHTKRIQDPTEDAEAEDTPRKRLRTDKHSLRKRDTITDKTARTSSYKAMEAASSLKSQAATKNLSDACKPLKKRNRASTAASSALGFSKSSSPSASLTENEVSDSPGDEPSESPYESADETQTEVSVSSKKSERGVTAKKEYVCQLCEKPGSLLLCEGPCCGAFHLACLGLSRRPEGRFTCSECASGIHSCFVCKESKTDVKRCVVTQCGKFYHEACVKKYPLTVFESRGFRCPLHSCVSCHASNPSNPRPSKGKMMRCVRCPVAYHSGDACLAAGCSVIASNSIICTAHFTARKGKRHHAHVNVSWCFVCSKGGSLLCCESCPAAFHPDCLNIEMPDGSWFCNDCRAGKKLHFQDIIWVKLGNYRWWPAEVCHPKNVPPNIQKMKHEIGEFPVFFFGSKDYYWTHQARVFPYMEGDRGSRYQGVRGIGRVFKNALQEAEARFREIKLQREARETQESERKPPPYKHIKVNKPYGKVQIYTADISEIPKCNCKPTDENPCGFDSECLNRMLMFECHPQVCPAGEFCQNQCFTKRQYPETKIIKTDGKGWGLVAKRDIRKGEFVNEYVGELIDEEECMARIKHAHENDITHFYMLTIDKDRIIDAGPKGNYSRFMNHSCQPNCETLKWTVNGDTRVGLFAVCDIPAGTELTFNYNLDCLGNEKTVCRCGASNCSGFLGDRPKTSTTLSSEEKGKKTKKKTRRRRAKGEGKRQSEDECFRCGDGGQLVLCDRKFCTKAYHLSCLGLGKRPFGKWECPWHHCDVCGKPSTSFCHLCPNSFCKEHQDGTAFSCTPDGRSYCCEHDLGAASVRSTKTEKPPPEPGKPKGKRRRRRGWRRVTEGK

Albumin = Albumin (Bos taurus, UniProt P02769); assay: Counterscreen for inhibitors of T-cell receptor (TCR)-CD3 interaction: Fluorescence-based biochemical high throughput dose response assay to identify inhibitors of T-cell receptor (TCR)-CD3 interaction using a TAMRA-labeled BSA probe.; type: functional
Albumin, sequence (P02769 whole entry): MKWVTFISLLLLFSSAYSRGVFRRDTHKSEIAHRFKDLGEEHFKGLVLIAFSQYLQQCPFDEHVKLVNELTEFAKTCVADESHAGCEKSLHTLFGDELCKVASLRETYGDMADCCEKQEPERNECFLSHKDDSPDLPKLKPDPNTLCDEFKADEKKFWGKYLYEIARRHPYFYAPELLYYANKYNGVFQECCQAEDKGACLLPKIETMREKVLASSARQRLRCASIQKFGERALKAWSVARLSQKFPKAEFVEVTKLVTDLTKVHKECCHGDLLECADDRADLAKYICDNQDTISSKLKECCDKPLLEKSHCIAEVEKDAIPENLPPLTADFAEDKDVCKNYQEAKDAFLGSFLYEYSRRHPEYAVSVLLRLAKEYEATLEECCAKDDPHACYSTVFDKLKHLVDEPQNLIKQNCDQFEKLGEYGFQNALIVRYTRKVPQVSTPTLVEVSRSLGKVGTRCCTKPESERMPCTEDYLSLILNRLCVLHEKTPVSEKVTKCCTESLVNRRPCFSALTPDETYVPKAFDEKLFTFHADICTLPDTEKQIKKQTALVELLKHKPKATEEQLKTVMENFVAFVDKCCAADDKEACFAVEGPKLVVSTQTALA

[10] = NIH-3T3 fibroblast cytotoxicity, dose response, cytotoxicity control, cell-based, fluorescence, Alamar Blue, secondary assay (AID 2327); type: functional;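 note: NIH-3T3 mouse fibroblasts cultured with fluconazole at 8 µg/mL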
SUMO-activating enzyme [11] = target: T6, SUMO-activating enzyme (Homo sapiens, UniProt Q9UBT2); assay: inhibitors of in vitro SUMOylation cascade, primary screen, biochemical, HTRF, uHTS (AID 2006); type: protein-complex assay
T6 sequence (Q9UBE0 whole entry): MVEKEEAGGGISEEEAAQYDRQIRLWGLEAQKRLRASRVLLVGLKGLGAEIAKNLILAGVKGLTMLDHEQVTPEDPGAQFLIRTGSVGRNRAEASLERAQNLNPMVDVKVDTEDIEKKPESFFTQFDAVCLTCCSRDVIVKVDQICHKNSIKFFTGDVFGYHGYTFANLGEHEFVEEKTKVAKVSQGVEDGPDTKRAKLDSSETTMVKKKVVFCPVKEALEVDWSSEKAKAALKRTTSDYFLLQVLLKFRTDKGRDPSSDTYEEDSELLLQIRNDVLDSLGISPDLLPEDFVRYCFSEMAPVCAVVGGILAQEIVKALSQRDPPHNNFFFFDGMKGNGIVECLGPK
T6 sequence (Q9UBT2 whole entry): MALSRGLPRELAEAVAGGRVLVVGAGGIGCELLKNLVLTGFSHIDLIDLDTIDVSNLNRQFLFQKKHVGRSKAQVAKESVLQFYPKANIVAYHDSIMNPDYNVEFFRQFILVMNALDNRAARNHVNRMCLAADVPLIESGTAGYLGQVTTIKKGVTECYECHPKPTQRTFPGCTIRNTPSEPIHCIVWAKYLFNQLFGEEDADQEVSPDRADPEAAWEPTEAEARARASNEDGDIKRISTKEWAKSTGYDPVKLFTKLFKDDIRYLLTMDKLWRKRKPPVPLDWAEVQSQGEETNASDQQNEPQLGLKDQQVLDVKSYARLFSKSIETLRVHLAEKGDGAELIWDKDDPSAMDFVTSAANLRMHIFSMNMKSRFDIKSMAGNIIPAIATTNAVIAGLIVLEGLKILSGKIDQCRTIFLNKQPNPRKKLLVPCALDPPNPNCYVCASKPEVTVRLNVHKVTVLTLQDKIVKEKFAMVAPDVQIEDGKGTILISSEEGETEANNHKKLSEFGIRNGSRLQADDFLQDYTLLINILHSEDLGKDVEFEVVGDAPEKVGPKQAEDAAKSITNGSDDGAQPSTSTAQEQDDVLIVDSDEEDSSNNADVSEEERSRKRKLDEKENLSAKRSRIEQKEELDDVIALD

[12] = target: Intestinal-type alkaline phosphatase (Homo sapiens, UniProt P09923); assay: inhibition of human intestinal alkaline phosphatase – biochemical, dose response (AID 488876); type: functional
[13] = target: Intestinal-type alkaline phosphatase (Mus musculus, UniProt P24822); assay: PubChem AID 488785; type: functional
Intestinal-type alkaline phosphatase (Mus musculus, UniProt P24822), sequence (P24822 whole entry): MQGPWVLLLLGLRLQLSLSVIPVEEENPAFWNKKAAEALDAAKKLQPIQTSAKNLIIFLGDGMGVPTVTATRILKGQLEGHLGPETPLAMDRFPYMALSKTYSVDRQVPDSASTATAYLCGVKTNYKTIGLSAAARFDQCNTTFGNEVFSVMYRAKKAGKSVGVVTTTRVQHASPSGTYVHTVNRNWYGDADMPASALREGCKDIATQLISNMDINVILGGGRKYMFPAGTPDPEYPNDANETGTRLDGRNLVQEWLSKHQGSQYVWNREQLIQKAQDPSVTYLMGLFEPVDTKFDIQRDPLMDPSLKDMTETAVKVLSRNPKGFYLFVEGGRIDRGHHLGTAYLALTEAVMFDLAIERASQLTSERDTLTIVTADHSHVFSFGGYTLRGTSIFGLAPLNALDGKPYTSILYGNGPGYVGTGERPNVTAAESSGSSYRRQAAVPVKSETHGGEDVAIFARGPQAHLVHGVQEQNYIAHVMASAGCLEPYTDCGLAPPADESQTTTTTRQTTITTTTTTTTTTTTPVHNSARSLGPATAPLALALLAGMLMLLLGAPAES

[14] = target: DNA dC->dU-editing enzyme APOBEC-3G (Homo sapiens, UniProt Q9HC16); assay: Dose Response confirmation of small molecule APOBEC3G DNA Deaminase Inhibitors via a fluorescence-based single-stranded DNA deaminase assay. [Related pubchem assays (depositor defined):AID493012, AID493028]; type: functional
DNA dC->dU-editing enzyme APOBEC-3G, sequence (Q9HC16 whole entry): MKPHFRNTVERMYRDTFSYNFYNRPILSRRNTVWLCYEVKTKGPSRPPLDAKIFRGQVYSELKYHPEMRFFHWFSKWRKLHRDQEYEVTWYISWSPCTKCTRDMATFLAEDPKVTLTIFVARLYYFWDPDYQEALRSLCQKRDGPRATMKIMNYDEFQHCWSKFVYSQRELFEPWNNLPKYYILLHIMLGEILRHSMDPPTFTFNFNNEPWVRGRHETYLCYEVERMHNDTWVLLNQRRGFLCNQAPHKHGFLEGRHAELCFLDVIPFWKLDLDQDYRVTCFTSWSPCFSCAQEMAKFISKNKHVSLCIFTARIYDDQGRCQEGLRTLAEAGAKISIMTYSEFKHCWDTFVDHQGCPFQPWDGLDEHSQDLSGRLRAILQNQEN

[15] = target: DNA dC->dU-editing enzyme APOBEC-3A (Homo sapiens, UniProt P31941); assay: APOBEC3A DNA deaminase inhibitors, dose response, biochemical (AID 504722); type: functional
DNA dC->dU-editing enzyme APOBEC-3A, sequence (P31941 whole entry): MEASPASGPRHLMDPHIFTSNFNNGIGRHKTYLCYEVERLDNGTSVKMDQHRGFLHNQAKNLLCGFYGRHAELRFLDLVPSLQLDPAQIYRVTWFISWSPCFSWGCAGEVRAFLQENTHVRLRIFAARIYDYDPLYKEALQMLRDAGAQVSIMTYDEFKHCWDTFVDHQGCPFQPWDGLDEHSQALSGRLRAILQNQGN

SUMO-activating enzyme [16] = target: T6, SUMO-activating enzyme; assay: SUMOylation inhibitor hit validation, confirmation, SUMOylation inhibitor project, biochemical, AlphaScreen (AID 2018); type: functional
[17] = C. albicans growth with fluconazole, confirmation, fluorescence, retest (AID 2467); type: functional, cell-based
[18] = target: T7, Alkaline phosphatase, tissue-nonspecific isozyme (Homo sapiens, UniProt P05186); assay: TNAP enzyme inhibition by screening hits, dose response, selectivity assay for mouse IAP inhibitor project, biochemical, human TNAP, uHTS hits (AID 488906); type: functional
T7 sequence (P05186 whole entry): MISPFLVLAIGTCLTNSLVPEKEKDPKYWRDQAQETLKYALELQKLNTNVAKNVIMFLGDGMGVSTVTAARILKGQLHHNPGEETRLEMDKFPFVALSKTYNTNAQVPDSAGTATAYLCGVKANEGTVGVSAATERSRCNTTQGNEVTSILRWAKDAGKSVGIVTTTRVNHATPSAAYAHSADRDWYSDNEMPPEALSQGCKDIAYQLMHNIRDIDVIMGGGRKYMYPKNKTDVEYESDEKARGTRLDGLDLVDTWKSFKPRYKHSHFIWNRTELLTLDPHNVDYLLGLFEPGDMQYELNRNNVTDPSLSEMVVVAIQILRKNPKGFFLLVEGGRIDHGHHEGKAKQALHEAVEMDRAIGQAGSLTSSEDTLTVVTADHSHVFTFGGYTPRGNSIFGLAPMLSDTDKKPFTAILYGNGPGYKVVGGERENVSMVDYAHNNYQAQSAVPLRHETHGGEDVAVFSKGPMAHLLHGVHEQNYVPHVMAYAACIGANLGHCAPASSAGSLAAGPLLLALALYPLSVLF

Large T antigen = Large T antigen (Simian virus 40, UniProt P03070); type: functional, Betapolyomavirus macacae;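 note: Confirmatory-stage PubChem screen for compounds that inhibit SV40 T antigen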
Large T antigen, sequence (P03070 whole entry): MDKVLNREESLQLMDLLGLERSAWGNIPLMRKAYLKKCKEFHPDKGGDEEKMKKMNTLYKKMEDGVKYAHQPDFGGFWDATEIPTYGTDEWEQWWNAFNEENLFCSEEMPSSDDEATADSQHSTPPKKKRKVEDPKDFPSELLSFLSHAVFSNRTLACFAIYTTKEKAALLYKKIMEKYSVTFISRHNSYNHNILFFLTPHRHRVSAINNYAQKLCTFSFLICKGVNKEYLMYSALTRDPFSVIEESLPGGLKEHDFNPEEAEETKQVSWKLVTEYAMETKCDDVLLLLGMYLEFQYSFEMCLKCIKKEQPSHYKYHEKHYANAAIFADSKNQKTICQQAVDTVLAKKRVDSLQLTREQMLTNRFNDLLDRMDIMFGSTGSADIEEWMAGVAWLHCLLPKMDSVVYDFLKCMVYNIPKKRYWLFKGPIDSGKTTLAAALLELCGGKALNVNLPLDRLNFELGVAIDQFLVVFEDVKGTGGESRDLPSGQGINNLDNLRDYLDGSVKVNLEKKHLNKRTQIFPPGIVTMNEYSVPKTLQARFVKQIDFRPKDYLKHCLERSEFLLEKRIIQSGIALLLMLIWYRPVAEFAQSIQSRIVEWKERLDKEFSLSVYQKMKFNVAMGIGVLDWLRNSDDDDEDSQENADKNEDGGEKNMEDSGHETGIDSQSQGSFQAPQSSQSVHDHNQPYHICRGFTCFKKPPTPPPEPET

Protein RecA [19] = target: T8, Protein RecA (Mycobacterium tuberculosis, UniProt P9WHJ3); assay: RecA Intein Measured in Biochemical System Using Plate Reader - 2047-02_Inhibitor_Dose_DryPowder_Activity. [Related pubchem assays (depositor defined):AID2223]; set-up: species or system Mycobacterium tuberculosis H37Rv
T8 sequence (P9WHJ3 whole entry): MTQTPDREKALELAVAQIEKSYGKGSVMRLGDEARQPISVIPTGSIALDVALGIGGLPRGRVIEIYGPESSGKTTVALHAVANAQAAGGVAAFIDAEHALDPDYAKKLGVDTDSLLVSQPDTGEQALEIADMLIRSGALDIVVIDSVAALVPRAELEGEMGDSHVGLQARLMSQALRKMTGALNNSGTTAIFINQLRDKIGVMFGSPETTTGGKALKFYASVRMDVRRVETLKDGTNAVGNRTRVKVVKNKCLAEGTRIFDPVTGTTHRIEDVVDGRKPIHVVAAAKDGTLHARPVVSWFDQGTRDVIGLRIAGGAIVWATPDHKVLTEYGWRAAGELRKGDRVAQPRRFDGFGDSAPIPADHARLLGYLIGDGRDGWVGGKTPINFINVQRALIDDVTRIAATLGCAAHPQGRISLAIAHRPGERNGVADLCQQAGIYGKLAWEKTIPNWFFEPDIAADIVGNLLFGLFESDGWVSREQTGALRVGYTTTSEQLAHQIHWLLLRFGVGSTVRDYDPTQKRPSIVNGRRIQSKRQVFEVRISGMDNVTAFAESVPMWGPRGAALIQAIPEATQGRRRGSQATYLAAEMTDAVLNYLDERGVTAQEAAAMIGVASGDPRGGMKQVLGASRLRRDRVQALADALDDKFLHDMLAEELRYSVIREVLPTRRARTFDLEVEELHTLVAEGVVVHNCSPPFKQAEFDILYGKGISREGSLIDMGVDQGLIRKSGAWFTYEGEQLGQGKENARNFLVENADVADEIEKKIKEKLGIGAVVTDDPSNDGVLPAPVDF

Protein RecA [20] = target: T8, Protein RecA; assay: GFP-RecA MOA-DTT Measured in Biochemical System Using Plate Reader - 2047-05_Inhibitor_Dose_DryPowder_Activity. [Related pubchem assays (depositor defined):AID2223]; set-up: species or system Mycobacterium tuberculosis H37Rv
[21] = target: T9, Replicative DNA helicase DnaB (Mycobacterium tuberculosis, UniProt P9WMR3); assay: DnaB Intein secondary assay Measured in Biochemical System Using Plate Reader - 2047-04_Inhibitor_Dose_DryPowder_Activity. [Related pubchem assays (depositor defined):AID2223]
T9 sequence (P9WMR3 whole entry): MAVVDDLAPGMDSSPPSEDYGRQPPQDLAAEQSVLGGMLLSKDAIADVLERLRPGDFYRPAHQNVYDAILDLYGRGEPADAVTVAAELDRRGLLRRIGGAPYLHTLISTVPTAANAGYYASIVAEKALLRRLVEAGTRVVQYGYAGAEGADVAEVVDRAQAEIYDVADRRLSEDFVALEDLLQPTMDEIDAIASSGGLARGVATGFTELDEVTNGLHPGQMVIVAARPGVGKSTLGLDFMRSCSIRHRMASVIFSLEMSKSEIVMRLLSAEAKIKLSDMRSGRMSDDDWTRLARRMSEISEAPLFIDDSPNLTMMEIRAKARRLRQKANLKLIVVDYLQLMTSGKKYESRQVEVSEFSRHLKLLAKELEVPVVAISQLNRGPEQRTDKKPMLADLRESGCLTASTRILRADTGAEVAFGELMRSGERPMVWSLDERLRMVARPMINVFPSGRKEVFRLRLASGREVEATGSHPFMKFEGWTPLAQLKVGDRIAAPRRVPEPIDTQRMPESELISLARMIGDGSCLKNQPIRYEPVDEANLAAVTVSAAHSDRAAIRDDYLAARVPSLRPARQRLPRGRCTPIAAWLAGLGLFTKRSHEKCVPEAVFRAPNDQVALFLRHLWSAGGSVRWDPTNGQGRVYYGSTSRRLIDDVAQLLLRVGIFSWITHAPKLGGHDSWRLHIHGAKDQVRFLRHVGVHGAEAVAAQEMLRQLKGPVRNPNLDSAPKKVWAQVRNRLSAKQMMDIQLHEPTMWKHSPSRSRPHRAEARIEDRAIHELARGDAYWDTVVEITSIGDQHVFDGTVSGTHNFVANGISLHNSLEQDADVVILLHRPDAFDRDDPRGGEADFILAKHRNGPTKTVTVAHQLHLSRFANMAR

T1 sequence (Q9Y2T6 whole entry): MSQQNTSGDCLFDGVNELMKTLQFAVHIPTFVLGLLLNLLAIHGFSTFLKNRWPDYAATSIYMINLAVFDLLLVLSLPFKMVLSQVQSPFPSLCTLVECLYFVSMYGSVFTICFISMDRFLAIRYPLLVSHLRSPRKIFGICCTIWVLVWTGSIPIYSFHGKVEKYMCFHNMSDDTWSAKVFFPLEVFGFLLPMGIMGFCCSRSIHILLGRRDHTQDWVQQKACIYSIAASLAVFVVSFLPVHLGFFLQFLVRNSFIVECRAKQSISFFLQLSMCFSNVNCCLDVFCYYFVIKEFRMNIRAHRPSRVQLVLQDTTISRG

SMILES: COC(=O)C1=C(N)c2c(F)cccc2C1(C#N)c1ccc(F)cc1 (stereo not drawn)
- IC50 [1]: 1.26 µM (active)
- IC50 (Cannabinoid receptor 2 [2]): > 32 µM (inactive)
- IC50 [3]: > 32 µM (inactive)
- IC50 (Cannabinoid receptor 1 [4]): 30.7 µM (inactive)
- EC50 [5]: > 32 µM (inactive)
- IC50 [6]: 1.14 µM (active)
- EC50 (Cannabinoid receptor 2 [7]): > 32 µM (inactive)
- EC50 (Cannabinoid receptor 1 [8]): > 32 µM (inactive)

SMILES: N#C/C(=C\c1ccc(O)c(O)c1)C(=O)Nc1cccc2ncccc12
- AC50 [9]: 3.18 µM (active)
- IC50 (Albumin): > 94 µM (inactive)
- EC50 [10]: > 150 µM (inactive)
- IC50 (SUMO-activating enzyme [11]): 21.4 µM (active)
- IC50 [12]: 12.5 µM (active)
- IC50 [13]: 14.3 µM (active)
- IC50 [14]: 3.81 µM (active)
- IC50 [15]: > 100 µM (inactive)
- IC50 (SUMO-activating enzyme [16]): 1.27 µM (active)
- EC50 [17]: > 38 µM (not active)
- IC50 [18]: 34.6 µM (active)
- IC50 (Large T antigen): 27.8 µM (active)

SMILES: Cc1oc2c(c1C(=O)NCc1ccccn1)C(=O)c1ccccc1C2=O
- AC50 (Protein RecA [19]): 0.074 µM (active)
- AC50 (Protein RecA [20]): 9.92 µM (active)
- AC50 [21]: 1.07 µM (active)

Source: ChEMBL document CHEMBL1201862, “PubChem BioAssay data set” (2004)
